# Laboratory results from patent US12201592B2, “Combinations of IRS/STAT3 dual modulators and anti-cancer agents for treating cancer” (TYRNOVO LTD., priority 2015, dated 2025).
# Read-outs that look alike come from different tables or passages of the source.
# Tests used:
# HepG2 = test: Cell proliferation and viability, methylene-blue staining; assay type: cell-based; conditions: Homo sapiens, 72 h; HepG2, hepatocarcinoma; 3 days exposure
# Procedure: (§1) Cells were grown in complete medium and treated with inhibitors one day following seeding. 72 hours later, the surviving cells were quantified by methylene blue staining or by WST-1 staining for nonadherent cells (Roche).
# (§2) Cells were plated in 96-well plates in 5-10% FCS in medium; a day later exposed to various concentrations of compound A, compound D or OSI-906 and 3 days later stained with methylene-blue and the relative cell number was quantified.
# PC3 = test: as above; assay type: cell-based; conditions: Homo sapiens, PC-3, 72 h; PC3, prostate cancer; 3 days exposure
# Procedure: as §1, §2
# A375 melanoma cells = test: Apoptosis after short exposure and wash-out; assay type: cell-based, human; conditions: 4 hr exposure, washed; 24 and 48 hr later (FIG. 6C)
# Procedure: • Cells were treated as indicated in FIGS. 6-9 and the corresponding figure legends, following overnight serum-starvation (unless indicated differently). When cells were treated with both PLX4032 and compounds A or D, PLX4032 was added 3-4 hr following the compounds. • Cells were lysed with boiling sample buffer (10% glycerol, 50 mmol/L Tris-HCl, pH 6.8, 3% SDS, and 5% 2-mercaptoethanol). Western blot analysis was conducted in 8% SDS-PAGE, using antibodies described below. • Aliquots of cell extracts containing equal amounts of protein were resolved by 8% SDS/PAGE and electroblotted onto nitrocellulose filters. The membranes were blocked with low-fat milk diluted 1:20 in TBST (NaCl/Tris containing 0.2% Tween-20) for 0.5 hr, incubated with Rabbit anti-phosphoY705-Stat3 antibody (Cell signaling cat #9131), Mouse anti-ERK-diphosphorylated-YT (Sigma Aldrich cat #M8159) or anti-PARP antibodies overnight at 4 C in 5% BSA in TBST containing 0.05% azid, washed extensively with TBST and then incubated with horseradish peroxidase-conjugated secondary antibodies for 45 min at room temperature in 5% BSA in TB ST. • Immunoreactive bands were visualized using enhanced chemiluminescence. Membranes were re-blotted with Mouse anti-Stat3 antibody (Transduction labs cat #21320) or with Rabbit anti AKT1/2 (Santa cruz cat #sc-8312) or Anti-Actin as described above. IV. […]
# [1] = system: colon metastatic carcinoma biopsy; test: PDX efficacy study with Cetuximab and FOLFIRI (Example 12); assay type: in vivo, NodScid mice; conditions: start ~110 mm^3; 14 days
# Procedure: Experimental system: Patient-derived xenograft (PDX) of human primary colon metastatic carcinoma biopsy subcutaneous implanted into NodScid mice.
# The length (l) and the width (w) of the tumors were measured 4 times a week and the volume of the tumors were calculated as follows: v=lw^2/2.
# MM1S = test: Cell proliferation and viability; assay type: cell-based; conditions: Homo sapiens, MM1.S, 72 h, multiple myeloma, 3 days exposure
# Procedure: as §1, §2
# Mel1617-BR = test: Cell proliferation and viability, methylene-blue staining; assay type: cell-based; conditions: Homo sapiens, 72 h, melanoma, 3 days exposure
# Procedure: (§3) All melanoma cells used and discussed in FIGS. 6-9 and table 1 are from human origin and bearing the mutated BRAF^600K/E.
# as §1, §2
# Mel1617-Pa = test: as above; assay type: cell-based; conditions: Homo sapiens, 72 h, melanoma, 3 days exposure
# Procedure: as §3, §1, §2
# [2] = system: pStat3 in A375, 451-Lu, Mel1617 cells; test: Immunoblot of basal and PLX4032-induced pStat3 in PLX4032-sensitive melanoma cells; assay type: cell-based, human; conditions: PLX4032 1 μM added 3-4 hr after the compounds (FIG. 7C-E, 8A)
# Procedure: FIGS. 7A-7E. […] FIG. 7A. […] FIG. 7B. […] Cells from patients were grown in complete medium and immunoblotted as described above. […] Compounds A/D block the basal and the PLX4032-induced pStat3. Treatment of PLX4032-sensitive human melanoma A375 (C), 451-Lu (D) or Mel1617 (E) cells with 1 μM PLX4032 for 18-24 hr induces a dramatic increase in pStat3. Compounds A (FIG. 7C, D) or D (FIG. 7E) block both the basal and the PLX4032-induced pStat3. OSI-906, an ATP-competitive inhibitor of IGF1R, has no effect on pStat3.
# (§4) • Cells were treated as indicated in FIGS. 6-9 and the corresponding figure legends, following overnight serum-starvation (unless indicated differently). When cells were treated with both PLX4032 and compounds A or D, PLX4032 was added 3-4 hr following the compounds. • Cells were lysed with boiling sample buffer (10% glycerol, 50 mmol/L Tris-HCl, pH 6.8, 3% SDS, and 5% 2-mercaptoethanol). Western blot analysis was conducted in 8% SDS-PAGE, using antibodies described below. • Aliquots of cell extracts containing equal amounts of protein were resolved by 8% SDS/PAGE and electroblotted onto nitrocellulose filters. The membranes were blocked with low-fat milk diluted 1:20 in TBST (NaCl/Tris containing 0.2% Tween-20) for 0.5 hr, incubated with Rabbit anti-phosphoY705-Stat3 antibody (Cell signaling cat #9131), Mouse anti-ERK-diphosphorylated-YT (Sigma Aldrich cat #M8159) or anti-PARP antibodies overnight at 4 C in 5% BSA in TBST containing 0.05% azid, washed extensively with TBST and then incubated with horseradish peroxidase-conjugated secondary antibodies for 45 min at room temperature in 5% BSA in TB ST. • Immunoreactive bands were visualized using enhanced chemiluminescence. Membranes were re-blotted with Mouse anti-Stat3 antibody (Transduction labs cat #21320) or with Rabbit anti AKT1/2 (Santa cruz cat #sc-8312) or Anti-Actin as described above. IV. Chemotaxis of Peripheral Blood Mononuclear Cells (PBMCs)
# [3] = system: Uteral AdenoSarcoma biopsy; test: PDX efficacy study with Afinitor (Examples 4 and 5); conditions: phase I
# Procedure: Treatments and Procedures
# Treatment groups included: • 1. Control: 20% HPbCD 50 ul IP, qod (6 mice). • 2. […] Afinitor 5 mg/kg PO, qod (15 mice). • 4. Afinitor 5 mg/kg PO (qod)+Compound D 70 mg/kg IV (qod), 6 mice. Afinitor was administered ˜4 hr following Compound D.
# All treatments were initiated simultaneously on day0.
# The length (l) and the width (w) of the tumors were measured every other day and the volumes of the tumors were calculated as follows: v=lw^2/2.
# Following treatments described in phase I (example 4), the mice whose tumors reached the end point were sacrificed, and the following treatments were continued.
# • 1. The Afinitor-responder group (group A, open squares) was administered with Afinitor 5 mg/kg PO, qd (8 mice). • 2. The combined treatment group (open circles) continued to get the Afinitor 5 mg/kg PO (qod)+Compound D 70 mg/kg IV (qod) treatment (6 mice). Afinitor was administered ˜4 hr following Compound D. Phase III:
# The group was divided to two groups of 4 mice each which received the following treatments on day6 onwards: • The first continued to get Afinitor 5 mg/kg PO, qd (4 mice) • and the second got Afinitor 5 mg/kg PO (qod)+Compound D 70 mg/kg IV (qod) combined treatment (4 mice). Afinitor was administered ˜4 hr following Compound D.
# [4] = system: Uteral AdenoSarcoma biopsy; test: PDX efficacy study with Afinitor, repeat (Example 5A); assay type: in vivo, NodScid mice; conditions: Afinitor 5 mg/kg PO, Compound D 70 mg/kg IV
# Procedure: The experiment described in Example 4 was repeated in purchased mice from Harlan.
# • 1. […] Afinitor 5 mg/kg PO, 4 times a week (17 mice). • 4.
# [5] = system: Adenoid Cyctic Carcinoma tumor biopsy; test: PDX efficacy study with Trametinib (Example 9); assay type: in vivo, NodScid mice; conditions: day0-day13; start ~65 mm^3; Trametinib 1 mg/kg PO, Compound D 70 mg/kg IV
# Text: Experimental system: Patient-derived xenograft (PDX) of Adenoid Cyctic Carcinoma tumor biopsy subcutaneous implanted into NodScid mice.
# • Biopsy: Fresh human primary Adenoid Cyctic Carcinoma tumor biopsy. […] The mice were randomly divided into treatment groups including 5 animals/group. The vehicle-treated group included 4 mice. II. Treatments and Procedures
# Treatment groups included: • 1. Vehicle-control: vehicle of Trametinib (5% Propylene Glycol, 0.5% Tween-80, 30% PEG 400 in Sterile DDW) 200 μl PO (5 times/week, qd). • 2. […] Trametinib 1 mg/kg PO (5 times/week, qd). • 4.
# (§6) The length (l) and the width (w) of the tumors were measured 2-4 times a week and the volumes of the tumors were calculated as follows: v=lw^2/2.
# HCT15 = test: Cell proliferation and viability, methylene-blue staining; assay type: cell-based; conditions: Homo sapiens, HCT-15, 72 h; HCT15, colon cancer; 3 days exposure
# Procedure: Cells were grown in complete medium and treated with inhibitors one day following seeding. 72 hours later, the surviving cells were quantified by methylene blue staining or by WST-1 staining for nonadherent cells (Roche). Cells were plated in 96-well plates in 5-10% FCS in medium; a day later exposed to various concentrations of compound A, compound D or OSI-906 and 3 days later stained with methylene-blue and the relative cell number was quantified.
# [6] = system: pStat3 in 451-LU-BR, Mel1617-BR and patient cells M2068, M571; test: Immunoblot of pStat3 in BRAFi-resistant melanoma cells; assay type: cell-based, human
# Procedure: FIGS. 8A-8D. […] FIG. 8C. […] FIG. 8D. Cells of various cancer types were treated with compound D for 4 hr in serum-free medium, and 20 hr in medium with or without 10% serum. Asterisks indicate 10 μM concentration for RPMI8226 and HepG2 cells.
# as §4
# [7] = system: phospho-Y705 Stat3 (pSTAT3) in melanoma A375 cells; test: Immunoblot of Stat3 Y705-phosphorylation in intact cells; assay type: cell-based, human; conditions: Homo sapiens, A-375
# Procedure: FIGS. 6A-6E. […] A. Human melanoma A375 cells were treated with the indicated concentrations of compounds A or D for 1.3 and 4.5 hr. Cells were lysed and immunoblotted with antibodies against phospho-Y705 Stat3 (pSTAT3) and Stat3. […] B. Cells were treated with 2 μM Compound A and lysed following the indicated times. C. A375 cells were treated with compound D for 4 hr, then washed with medium several times and lysed after 4, 24 and 48 hr of incubation without inhibitors.
# as §4
# [8] = system: Squamous Cell carcinoma of Head&Neck (SCCHN) tumor biopsy; test: PDX efficacy study, acquired resistance to Erlotinib (Example 1); conditions: start ~80 mm^3; Erlotinib 100 mg/kg PO, Compound D 70 mg/kg IV; two weeks
# HNSCC tumor biopsy = test: PDX efficacy study, tumor recurrence after Cetuximab±Afatinib (Example 7); assay type: in vivo, NodScid mice; conditions: 9 days of treatment; start ~113 mm^3
# Procedure: Experimental system: Patient-derived xenograft (PDX) of HNSCC tumor biopsy subcutaneous implanted into NodScid mice.
# • Implantation of HNSCC tumor biopsy graft (P6) into NodScid mice for efficacy study: Few months following implantation of frozen HNSCC tumor biopsy graft (P1) in mice, tumor cells (P6) were injected into NodScid mice (generated by in-house breeding), using the same procedure described for implantation of P1. The original biopsy is the same as described above and the P indicates passages (implantation number in mice). • Onset of tumor growth (palpable tumor mass) was detected four days following cell injection. Five days later, treatments initiated in mice which developed tumors sized around 113 mm^3. […] Treatments and Procedures
# Treatment groups included: • 1. Vehicle-control: Vehicle (0.5% Hydroxymethyl-cellulose, 0.4% Tween-80) 200 μl PO (5 times/week, qd). • 2. Compound D 70 mg/kg in HPbCD, IV (3 times/week, qod). • 3.
# as §6
# 451Lu-Pa = test: Cell proliferation and viability, methylene-blue staining; assay type: cell-based; conditions: Homo sapiens, 72 h, melanoma, 3 days exposure
# Procedure: (§5) All cell lines were obtained from the American Type Culture Collection. YUMAC, YURIF, YUSIK (all human melanoma, kindly provided by Prof. Ruth Halaban, Yale University, New Haven, Conn.) were cultured in OptiMEM containing 5% FCS. M571, M2068, M560n (all human melanoma, kindly provided by Dr. Michal Lotem, Hadassah Hospital, Jerusalem, Israel) were maintained in RPMI, DMEM and F12 (1:3:1) containing 10% FCS. 451-Lu (human melanoma) and 451-Lu-BR (PLX4032-resistant melanoma; ref. 32) were maintained in RPMI containing 5% FCS (media for resistant lines contained […] PLX4032). All media were supplemented with 100 U/mL penicillin and […] and all cells were grown at 37° C./5% CO2.
# as §3, §1, §2
# 451Lu-BR = test: as above; assay type: cell-based; conditions: Homo sapiens, 72 h, melanoma, 3 days exposure
# Procedure: as §5, §3, §1, §2
# [9] = system: tumor pieces of pancreatic cancer liver metastasis PDX; test: Culture of tumor pieces excised at the end of the experiment (Example 10); assay type: cell-based; conditions: three tumors per group; fixed and stained nine days later
# Procedure: At the end of the experiment, tumor pieces, similar in size, from three tumors per group were cultured in separate plates to test their viability and proliferative activity.
# [10] = system: pancreatic cancer metastasis from the liver; test: PDX efficacy study with Gemcitabine (Example 10); assay type: in vivo, NodScid mice
# Procedure: Experimental system: Patient-derived xenograft (PDX) of a biopsy of pancreatic cancer metastasis from the liver, subcutaneous implanted into NodScid mice.
# • Implantation of pancreatic cancer metastasis from the liver RA_160 tumor biopsy graft (P5) into NodScid mice for efficacy study: Several weeks following implantation of pancreatic cancer liver metastasis biopsy graft in mice, tumor cells (P5) were injected into NodScid mice (generated by in-house breeding), using the same procedure described above. • Onset of tumor growth (palpable tumor mass) was detected ten days following cell injection. A week later (on da0), 19 mice with average tumor size of 90 mm^3 initiated treatments with Gemcitabine 25 mg/kg IP twice a week for 35 days. […] On day21 the average tumor size in Gemcitabine-treated group was ˜5 mm^3 as compared to 1400 mm^3 in the control group. • 42 days following initiation of treatment with Gemcitabine resistance developed and regressed tumors progressed. Four days later 16 mice of the Gemcitabine-treated group with average tumor volume of ˜110 mm^3 were divided to two groups as follows. II. Treatments
# Treatment groups, following resistance to Gemcitabine has been acquired, included: • 1. Gemcitabine 25 mg/kg IP twice a week • 2. Gemcitabine 25 mg/kg IP+Compound D 70 mg/kg IV, twice a week.
structure (smiles),measurement,setting,value
Oc1cc(CNC(=S)/C=C/c2ccc(O)c(O)c2Br)cc(O)c1O [Compound D],IC50,HepG2,700 nM
same,IC50,PC3,500 nM
same,cell apoptosis after short exposure,A375 melanoma cells,sufficient to induce cell apoptosis 24 and 48 hr later
same,effect on tumor growth,[1],No effect on tumor growth
same,IC50,MM1S,200 nM
same,IC50,Mel1617-BR,300 nM
same,IC50,Mel1617-Pa,200 nM
same,effect on basal and PLX4032-induced pStat3 levels,[2],block both the basal and the PLX4032-induced levels of pStat3
same,responder mice,[3],none of the mice responded
same,effect on tumor growth,"[3]; four days, Afinitor 5 mg/kg PO, Compound D 70 mg/kg IV",no significant effect on tumor growth
same,effect on tumor growth,[4],no effect on tumor growth
same,"tumor response, first phase",[5],moderate tumor growth inhibition
same,IC50,HCT15,800 nM
same,effect on Stat3 phosphorylation in PLX4032-resistant melanoma cells,"[6]; 451-LU-BR, Mel1617-BR, patient cells M2068 and M571 (FIG. 8A-C)",block Stat3 phosphorylation completely
same,relative activity on pStat3 in melanoma cells from patients who acquired resistance to PLX4032,[6]; FIG. 8C,better activity of compound D compared with compound A
same,IC50,"[7]; A375 cells, 1.3 hr post-treatment (FIG. 6A), read-out: IC50 of inhibition of Stat3 phosphorylation (pStat3)",~2000 nM
same,IC50,"[7]; A375 cells, 3 hr later (4.5 hr treatment, FIG. 6A), read-out: IC50 of inhibition of Stat3 phosphorylation (pStat3)",< 1000 nM
same,IC50,"[7]; FIG. 6D, read-out: IC50 of dose-dependent inhibition of pStat3",< 1000 nM
same,tumor response (tumor volume),[8],has not responded
same,tumor response while on treatment,HNSCC tumor biopsy,aggressively progressed
same,IC50,451Lu-Pa,300 nM
same,IC50,451Lu-BR,600 nM
Nc1ccn([C@@H]2O[C@H](CO)[C@@H](O)C2(F)F)c(=O)n1 [Gemcitabine],proliferative activity of cultured tumor pieces,[9],massive proliferation
same,average tumor size on day21,"[10]; Gemcitabine 25 mg/kg IP twice a week, control 1400 mm^3",~5 mm^3
same,tumor response on day11,"[10]; Gemcitabine 25 mg/kg IP twice a week, start 90 mm^3",all tumors in Gemcitabine-treated mice regressed
same,response of Gemcitabine-resistant tumors,"[10]; start ~110 mm^3, after resistance was acquired",all tumors treated with Gemcitabine progressed
same,time from initiation of treatment until resistance developed,[10]; treated for 35 days,42 days
